Assays:
carageenan-induced edema = experiment: Carrageenan-induced rat paw edema test (anti-inflammatory activity); format: in vivo, Sprague-Dawley rats; parameters: % Protection: concentration or dose not given beside the values; settings: carrageenan-induced rat paw edema, defined in Example 397; for inhibition in vivo at 50 mg/kg: Rattus norvegicus, po, 3 h, read-out: % Protection
Summary of the method: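 Edema was raised by sub-plantar injection of 1% carrageenan into the right hind paw, 1 h after dosing 18 h-fasted male/female Sprague-Dawley rats (150-250 g) with 50 mg/kg p.o. in 0.1% CMC. Swelling was measured by displacement 3 h later and expressed as % protection against saline control.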

NF-κB = NF-κB inhibitor screen: basal NF-κB-dependent luciferase expression in HEK/NF-κB cell line; format: cell-based; settings: 1 uM, determined as described in Example 398; for inhibition at 1 µM: read-out: NFkB inhibition @ 1 uM
Excerpt: Development of NF-κB and AP-1 Screens: Two HEK293 cell lines were purchased from Panomics. One cell line was stably transfected with a plasmid in which luciferase expression is regulated by six copies of the NF-κB transcriptional element (5′-[…]-3′); and the other cell line was stably transfected with a plasmid in which luciferase expression is regulated by three copies of the AP-1 transcriptional element (TGACTAA). To test the biological activity of the promoters, the HEK/NF-κB cell line was stimulated with TNF-α (20 ng/ml) for 24 hours, and the HEK/AP-1 cell line was stimulated with PMA (10 ng/ml) for 24 hours. […] In addition, a pyrimidine carboxyimide that had previously been shown (ref. 58) to be an inhibitor of transcription mediated by NF-κB and AP-1 reduced luciferase activity by approximately 40% in each of the NF-κB and AP-1 cell lines.
The above two assays analyzed the effects of the compounds on post-transcriptional gene regulation, which is known to play a key role in cancer and inflammation. By contrast, the NF-κB assay and the following assay (AP-1) test whether the compounds act at the transcriptional level. Thirty-nine representative compounds were screened in an HEK/NF-κB cell line. HEK cells were stably transfected with a plasmid expressing luciferase under the control of the NF-κB promoter. These transfected cells were plated on a 96-well plate. As above, initial screening was carried out at 1.0 μM by adding compound in DMSO (0.3%) twenty-four hours after plating. Each compound was added to each of triplicate wells. DMSO (0.3%) was added to one set of wells as a control. Luciferase activity was determined using Promega's Brite-Glo kit, and the mean for each sample was normalized to that for DMSO.
The fourteen representative compounds identified in the eIF4E screen as interesting (Numbered 2, 3, 4, 6, 8, 11, 15, 20, 21, 24, 25, 32, 33, and 35) were then tested for luciferase activity in a six-point dose response (10 nM, 33 nM, 100 nM, 330 nM, 1000 nM, and 3300 nM). Screening was carried out as described above by monitoring the effects of the compounds on basal NF-κB-dependent luciferase expression. Each dose was used out in triplicate, and repeated between two and four times. Results were normalized by the average expression level at the lowest concentration level, as described above.

AP-1 = AP-1 inhibitor screen: basal AP-1-dependent luciferase expression in HEK/AP-1 cell line; format: cell-based; settings: for AP-1 inhibition @ 1 uM / inhibition at 1 µM: determined as described in Example 398; for inhibition at 1 µM: AP1
Excerpt: Development of NF-κB and AP-1 Screens: Two HEK293 cell lines were purchased from Panomics. One cell line was stably transfected with a plasmid in which luciferase expression is regulated by six copies of the NF-κB transcriptional element (5′-[…]-3′); and the other cell line was stably transfected with a plasmid in which luciferase expression is regulated by three copies of the AP-1 transcriptional element (TGACTAA). To test the biological activity of the promoters, the HEK/NF-κB cell line was stimulated with TNF-α (20 ng/ml) for 24 hours, and the HEK/AP-1 cell line was stimulated with PMA (10 ng/ml) for 24 hours.
HEK cells were stably transfected with a plasmid expressing luciferase under the control of the AP-1 promoter. The transfected cells were plated on a 96-well plate for 24 hr. Then 1.0 μM of each compound in DMSO (0.3%) was added to triplicate wells and incubated for 48 hr. DMSO (0.3%) was added to one set of triplicate wells as a control. Luciferase activity was determined using Promega's Brite-Glo kit, and the mean for each sample was normalized to that for DMSO.
Screening was carried out as described above, monitoring the compounds' effects on basal AP-1-dependent luciferase expression. Each dose-response experiment was carried out in triplicate and repeated between two and four times.

Row | Compound | % Protection (carageenan-induced edema) [%] | NFkB inhibition @ 1 uM (NF-κB) | AP-1 inhibition @ 1 uM (AP-1) | inhibition in vivo at 50 mg/kg (carageenan-induced edema) [%] | inhibition at 1 µM (NF-κB) [%] | inhibition at 1 µM (AP-1) [%] | basal AP-1-dependent luciferase, six-point dose response (AP-1; 10 nM-3300 nM (FIG. 14))
1 | 2-[2-(1-Furan-2-yl-vinylamino)-4-phenyl-thiazol-5-yl]-3-(4-methoxyphenyl)-3H-quinazolin-4-one [Example 224] | 79 | −24 | 2 |  |  |  | 
2 | 2-[2-(1-Furan-2-yl-vinylamino)-4-phenyl-thiazol-5-yl]-3-phenyl-3H-quinazolin-4-one [Example 164] | 66 | 2 | 53 |  |  |  | 
3 | CCOC(=O)Nc1nc(C)c(-c2nc3ccccc3c(=O)n2-c2ccccc2)s1 [Example 154, (4-Methyl-5-(4-oxo-3-phenyl-3,4-dihydro-quinazolin-2-yl)-thiazol-2-yl)-carbamic acid ethyl ester] |  |  |  | 12 | 19 | -13 | 
4 | COC(=O)Nc1nc(C)c(-c2nc3ccccc3c(=O)n2-c2ccccc2)s1 [Example 155, (4-Methyl-5-(4-oxo-3-phenyl-3,4-dihydro-quinazolin-2-yl)-thiazol-2-yl)-carbamic acid methyl ester] |  |  |  | 0 | 24 | -1 | 
5 | Cc1nc(Nc2ccccc2)sc1-c1nc2ccccc2c(=O)n1-c1ccccc1 [Example 157, 2-(4-Methyl-2-phenylamino-thiazol-5-yl)-3-phenyl-3H-quinazolin-4-one] |  |  |  | 12 | 25 | 16 | 
6 | Cc1nc(Nc2ccc(Cl)cc2)sc1-c1nc2ccccc2c(=O)n1-c1ccccc1 [Example 158, 2-[2-(4-Chlorophenylamino)-4-methyl-thiazol-5-yl]-3-phenyl-3H-quinazolin-4-one] |  |  |  | 4 | -9 | -20 | 
7 | O=c1c2ccccc2nc(-c2sc(Nc3ccccc3)nc2-c2ccccc2)n1-c1ccccc1 [Example 161, 3-Phenyl-2-(4-phenyl-2-phenylamino-thiazol-5-yl)-3H-quinazolin-4-one] |  |  |  | 60 | 80 | 7 | 
8 | O=C(Nc1nc(-c2ccccc2)c(-c2nc3ccccc3c(=O)n2-c2ccccc2)s1)c1ccccc1 [Example 162] | 87 | 58 | 17 |  |  |  | 
9 | Cc1ccc(C(=O)Nc2nc(-c3ccccc3)c(-c3nc4ccccc4c(=O)n3-c3ccccc3)s2)cc1 [Example 163, 4-Methyl-N-[5-(4-oxo-3-phenyl-3,4-dihydroquinazolin-2-yl)-4-phenyl-thiazol-2-yl]-benzamide] |  |  |  | 77 | 88 | 68 | 
10 | O=c1c2ccccc2nc(-c2sc(Nc3ccc(Cl)cc3)nc2-c2ccccc2)n1-c1ccccc1 [Example 165, 2-[2-(4-Chloro-phenylamino)-4-phenyl-thiazol-5-yl]-3-phenyl-3H-quinazolin-4-one] |  |  |  | 87 | -47 | 27 | substantial activity at submicromolar concentrations
11 | CNc1nc(C)c(-c2nc3ccccc3c(=O)n2-c2ccccc2C)s1 [Example 168] | 35 | 16 | 67 |  |  |  | 
12 | Cc1ccccc1-n1c(-c2sc(Nc3ccccc3)nc2C)nc2ccccc2c1=O [Example 169, 2-(4-Methyl-2-phenylamino-thiazol-5-yl)-3-o-tolyl-3H-quinazolin-4-one] |  |  |  | 42 | 21 | 60 | 
13 | CCOC(=O)Nc1nc(-c2ccccc2)c(-c2nc3ccccc3c(=O)n2-c2ccccc2C)s1 [Example 171, [5-(4-Oxo-3-o-tolyl-3,4-dihydro-quinazolin-2-yl)-4-phenyl-thiazol-2-yl]-carbamic acid ethyl ester] |  |  |  | 52 | 23 | 52 | 
14 | Cc1cccc(-n2c(-c3sc(Nc4ccc(Cl)cc4)nc3-c3ccccc3)nc3ccccc3c2=O)c1 [Example 189, 2-[2-(4-Chloro-phenylamino)-4-phenyl-thiazol-5-yl]-3-m-tolyl-3H-quinazolin-4-one] |  |  |  | 38 | -4 | 83 | 
15 | Cc1ccc(-n2c(-c3sc(Nc4ccc(Cl)cc4)nc3C)nc3ccccc3c2=O)cc1 [Example 192, 2-[2-(4-Chlorophenylamino)-4-methyl-thiazol-5-yl]-3-p-tolyl-3H-quinazolin-4-one] |  |  |  | 37 | 12 | 2 | 
16 | CCOC(=O)Nc1nc(-c2ccccc2)c(-c2nc3ccccc3c(=O)n2-c2ccc(C)cc2)s1 [Example 193, [5-(4-Oxo-3-p-tolyl-3,4-dihydro-quinazolin-2-yl)-4-phenyl-thiazol-2-yl]-carbamic acid ethyl ester] |  |  |  | 31 | 2 | 11 | 
17 | Cc1ccc(-n2c(-c3sc(Nc4ccc(Cl)cc4)nc3-c3ccccc3)nc3ccccc3c2=O)cc1 [Example 200, 2-[2-(4-Chloro-phenylamino)-4-phenyl-thiazol-5-yl]-3-p-tolyl-3H-quinazolin-4-one] |  |  |  | 56 | -16 | 2 | 
18 | CNc1nc(-c2ccccc2)c(-c2nc3ccccc3c(=O)n2-c2ccccc2OC)s1 [Example 205, 2-(2-Methylamino-4-phenyl-thiazol-5-yl)-3-(2-methoxyphenyl)-3H-quinazolin-4-one] |  |  |  | 56 | 61 | 90 | 
19 | COc1cccc(-n2c(-c3sc(Nc4ccccc4)nc3-c3ccccc3)nc3ccccc3c2=O)c1 [Example 213, 3-(3-methoxyphenyl)-2-(4-phenyl-2-phenylamino-thiazol-5-yl)-3H-quinazolin-4-one] |  |  |  | 38 | 35 | 33 | 
20 | COc1ccc(-n2c(-c3sc(Nc4ccc(Cl)cc4)nc3C)nc3ccccc3c2=O)cc1 [Example 217, 2-[2-(4-Chlorophenylamino)-4-methyl-thiazol-5-yl]-3-(4-methoxyphenyl)-3H-quinazolin-4-one] |  |  |  | 50 | -38 | -43 | 
21 | CCOC(=O)Nc1nc(-c2ccccc2)c(-c2nc3ccccc3c(=O)n2-c2ccc(OC)cc2)s1 [Example 218, [5-(4-Oxo-3-(4-methoxyphenyl)-3,4-dihydro-quinazolin-2-yl)-4-phenyl-thiazol-2-yl]-carbamic acid ethyl ester] |  |  |  | 20 | 22 | 24 | 
22 | COc1ccc(-n2c(-c3sc(Nc4ccccc4)nc3-c3ccccc3)nc3ccccc3c2=O)cc1 [Example 221, 3-(4-Methoxyphenyl)-2-(4-phenyl-2-phenylamino-thiazol-5-yl)-3H-quinazolin-4-one] |  |  |  | 85 | 79 | 18 | 
23 | COc1ccc(-n2c(-c3sc(NC(=O)c4ccccc4)nc3-c3ccccc3)nc3ccccc3c2=O)cc1 [Example 222, N-[5-(4-Oxo-3-(4-methoxyphenyl)-3,4-dihydro-quinazolin-2-yl)-4-phenyl-thiazole-2-yl]benzamide] |  |  |  | 24 | 15 | 0 | 

From US8829014B2, “Thiazole and thiophene analogues, and their use in treating autoimmune diseases and cancers” (Board of Supervisors of Louisiana State University and …, priority 2006, dated 2014)
